# Measurements published in PubChem BioAssay AID1996.
# Settings: buffer; pH 7.4; 200.0 µM
row,Structure (SMILES),solubility kinetic
1,CCc1ccc(NC(=O)CCC(=O)c2ccccc2)cc1,7.5 µg/mL
2,O=C(O)C(=O)Nc1nc(-c2ccc3c(c2)OCCO3)cs1,> 45.9 µg/mL
3,Cc1nc(N2CCC(C(N)=O)CC2)c2c(-c3cccs3)csc2n1,> 53.8 µg/mL
4,COC(=O)c1sccc1NC(=O)Nc1cccc(OC)c1,> 46 µg/mL
5,COc1cc(/C=C2\NC(=O)NC2=O)cc(Br)c1OC,10.5 µg/mL
6,COc1ccc(Cl)cc1S(=O)(=O)NCCCn1ccnc1,48.6 µg/mL
7,Cc1cccc(C(=O)N[C@H](C(=O)NCc2cccs2)C(C)C)c1,7.5 µg/mL
8,CCN1CCC(NCCc2ccc(F)cc2)CC1,24.9 µg/mL
9,O=C(COC(=O)/C=C/c1ccc(S(=O)(=O)N2CCOCC2)cc1)Nc1ccc(F)c(F)c1F,11.6 µg/mL
10,CN(C)c1ccc(NC(=O)c2ccc(N3CCOCC3)nc2)cc1,20.4 µg/mL
11,CN=c1sc(C(=O)Nc2ccccc2)c(C)n1C,35.3 µg/mL
12,O=C(c1c(F)cccc1Cl)N1CCN(c2ccccn2)CC1,> 48 µg/mL
13,CN1CCN(C(=S)NC(CC(=O)c2ccccc2)c2ccccc2)CC1 (stereo not drawn),43.2 µg/mL
14,COc1ccc(NC(=S)Nc2cccc(C)n2)cc1,< 0.2 µg/mL
15,Cc1cc(=O)[nH]c(NCc2ccccc2)n1,30.6 µg/mL
16,CC(C)c1ccc(/C=C/C(=O)N2CCOCC2)cc1,36.3 µg/mL
17,Cc1cc(C(=O)CCl)c(C)n1-c1ccon1,33.7 µg/mL
18,COc1ccccc1OCCn1ccnc1,> 32.7 µg/mL
19,Nc1nc(-c2ccc(F)cc2)cs1,> 29.1 µg/mL
20,O=C(NCc1ccc2c(c1)OCO2)c1ccc(Br)o1,> 48.6 µg/mL
21,O=C(Cn1ccnc1[N+](=O)[O-])NCc1ccccc1,> 39 µg/mL
22,O=C(/C=C/c1ccccc1)NCCc1c[nH]c2ccccc12,19.7 µg/mL
23,NC(=O)c1ccccc1OCc1nc2ccccc2s1,19.5 µg/mL
24,CCC(C)c1ccc(NC(=S)NC(C)C2CCCO2)cc1 (stereo not drawn),31.2 µg/mL
25,Cc1nc(NC(=O)C2CC2)sc1C(=O)Nc1cccc(Cl)c1,0.8 µg/mL

row,Structure (SMILES),solubility kinetic
1,Cc1ccc(SCCCCN2CCOCC2)cc1.Cl,> 45.3 µg/mL
2,CCc1ccccc1NC(=O)CN(C)C(=O)COC(=O)c1ccco1,> 51.7 µg/mL
3,COc1ccc(CCC(=O)NC2CCCc3ccccc32)cc1OC (stereo not drawn),47.5 µg/mL
4,NC(=O)CN1CCCC1c1ccc2c(c1)OCCO2 (stereo not drawn),> 39.3 µg/mL
5,Cc1nc(NC(=O)COC(=O)[C@@H](NC(=O)c2ccco2)C(C)C)c(Cl)cc1Cl,> 64.2 µg/mL
6,CCCn1c(=O)c2[nH]cnc2n(-c2ccc(Cl)cc2)c1=O,44.9 µg/mL
7,CCN(C(=O)c1ccco1)c1nc(-c2ccc(OC)cc2)cs1,< 0.4 µg/mL
8,COc1ccc(CN(C)C2CCN(C)CC2)cc1OC,38.3 µg/mL
9,CCNC(=S)/N=C(/Nc1ccccc1)Nc1nc(C)cc(C)n1,0.8 µg/mL
10,Cl.Fc1ccc(CNC2CN3CCC2CC3)cc1 (stereo not drawn),> 46.1 µg/mL
11,Cc1ccc(OCC(=O)Nc2ccc3c(c2)C(=O)NC3=O)cc1,2.4 µg/mL
12,COC(=O)CSc1ncnc2scc(-c3ccccc3)c12,11.2 µg/mL
13,COc1ccc(C(=O)Cn2cnc3ccccc3c2=O)cc1,31 µg/mL
14,O=C(O)/C(=C/c1ccco1)NC(=O)c1ccc(Br)o1,> 48.9 µg/mL
15,O=C(COC(=O)/C=C/c1cccc(F)c1)NC1CCCCCC1,5.6 µg/mL
16,COc1ccc(-n2cc(-c3ccc(Br)cc3)[nH]c2=S)cc1,< 0.4 µg/mL
17,CCOc1ccc(C(C)NC(=O)Nc2ccc(F)cc2F)cc1 (stereo not drawn),1.8 µg/mL
18,CC1CCN(C(=O)CCCC(=O)N2CCC(C)CC2)CC1,> 44.2 µg/mL
19,COc1cc(OC)c(C2C(C#N)=C(C)NC(C)=C2C#N)c(C(=O)O)c1,> 50.9 µg/mL
20,Cc1c[nH]c(=O)c([N+](=O)[O-])c1,> 23.1 µg/mL
21,Nc1cc(C(=O)O)ccc1Sc1ccccc1C(=O)O,> 43.4 µg/mL
22,COc1ccc(C)cc1Nc1nc(N)c2ccccc2n1.Cl,47.1 µg/mL
23,COC(=O)c1c(NC(=O)CCC(=O)O)sc(Cc2ccccc2)c1C,48.7 µg/mL
24,Cc1cc(SCc2ccc(Cl)cc2Cl)nc(=O)[nH]1,4.6 µg/mL
25,Cc1ccc(-c2cnc3n2CCCCC3)cc1,> 33.9 µg/mL

row,Structure (SMILES),solubility kinetic
1,O=C(CNC(=O)COc1ccccc1)NCCc1ccccn1,> 47 µg/mL
2,O=C(CNC(=O)c1ccccc1F)OCc1nc2ccccc2s1,48.6 µg/mL
3,CC(Sc1ncnc2sc(-c3ccccc3)cc12)C(N)=O (stereo not drawn),0.8 µg/mL
4,C/C=C/C=C/C(=O)OCC(=O)Nc1ccc(Cl)cc1,6.2 µg/mL
5,Cc1ccc2[nH]c(CNC(=O)c3ccc(F)cc3)cc2c1,4.7 µg/mL
6,O=C(/C=C/c1cccs1)N1CCN(c2ccc(F)cc2)CC1,3.1 µg/mL
7,Cc1ccc(C)c(NC(=O)Cn2cnc3c(oc4ccccc43)c2=O)c1,< 0.2 µg/mL
8,C[C@@H]1CC2(CCCC[N+]2(C)C)C[C@H]1C.[I-],> 48.5 µg/mL
9,O=C(COC(=O)c1cc2ccccc2cc1O)NC1CCCCC1,5.9 µg/mL
10,Cc1ccc(O)c(NC(=O)c2cc(-c3cccs3)on2)c1,0.6 µg/mL
11,CC(C)Cc1nc(Cl)c(C#N)c2c1CCC2,3.8 µg/mL
12,CCN(CC)Cc1ccc(OC)c(Cl)c1.Cl,> 39.6 µg/mL
13,CCCS(=O)(=O)N1CCN=C1SCc1cccc(F)c1,39.6 µg/mL
14,Cc1noc(C)c1S(=O)(=O)N1CCCC1C(=O)O (stereo not drawn),> 41.1 µg/mL
15,CCCOc1ccccc1/C=C1/C(=O)ON=C1C,23.3 µg/mL
16,COc1ccc(NC(=S)NC(=O)C2CCCCC2)cc1,< 0.3 µg/mL
17,COCCNC(=S)c1ccc(Br)cc1,34.5 µg/mL
18,O=C(O)c1cc(S(=O)(=O)N2CCCCC2)ccc1Cl,> 45.6 µg/mL
19,Cc1ccc(NC(=O)C(=O)Nc2ccc(C)cn2)nc1,1.8 µg/mL
20,COc1cc(OC)cc(C(=O)O/N=C(\N)c2ccccn2)c1,40.6 µg/mL
21,Cc1ccccc1CNCc1ccc2c(c1)OCO2.O=C(O)C(=O)O,> 51.8 µg/mL
22,CC(OC(=O)c1cccnc1Cl)C(=O)Nc1ccc2c(c1)OCO2 (stereo not drawn),> 52.3 µg/mL
23,CCC(=O)NC(=S)Nc1ccc(S(=O)(=O)NC2CCCCC2)cc1,0.4 µg/mL
24,COc1nc(Nc2cccc(F)c2)nc(OC)n1,12.8 µg/mL
25,CC(=O)N=c1sc(S(N)(=O)=O)nn1C,> 35.4 µg/mL

row,Structure (SMILES),solubility kinetic
1,CC1(C)CC(=O)c2cc(NC(=O)c3ccc(F)cc3)c(=O)oc2C1,2 µg/mL
2,O=C(CN1C(=O)CNC1=O)Nc1ccc(Cl)cc1,> 40.2 µg/mL
3,CCN(CC)c1ccc(C(=O)c2cnc(/N=C/N(C)C)s2)cc1,48.6 µg/mL
4,COc1ccc(-c2csc3nc(-c4ccccc4F)oc(=O)c23)cc1,< 0.8 µg/mL
5,O=S(=O)(c1ccc(F)cc1)N1CN2CCN(C2)C1,> 40.7 µg/mL
6,COc1cc(Cl)c(C)cc1Nc1ncccn1,22.4 µg/mL
7,CC(C)c1ccc(NC2CCCN(C(=O)c3ccncc3)C2)cc1 (stereo not drawn),47.1 µg/mL
8,CNC(=S)N(CCCn1ccnc1)Cc1c(F)cccc1Cl,49 µg/mL
9,C=CCC1(C#N)C(=S)NC(C)=C(C(=O)OCC)C1c1ccccc1 (stereo not drawn),> 51.1 µg/mL
10,O=C(Nc1ccccc1C(=O)Nc1ccccn1)c1ccc([N+](=O)[O-])cc1,0.6 µg/mL
11,COC(=O)c1ccccc1NC(=O)CSc1nc2ncccc2[nH]1,8.7 µg/mL
12,CC(C)c1c(O)nc(SCC(=O)N2CCCCC2)[nH]c1=O,> 46.7 µg/mL
13,CCOCCCNC(=O)C1CCN(S(=O)(=O)N2CCCC2)CC1,> 52.1 µg/mL
14,O=C(COC(=O)Cc1ccc(Br)cc1)NCc1cccs1,11.8 µg/mL
15,O=C(CN1CCN(Cc2ccccc2F)C1=O)NCC1CCCO1 (stereo not drawn),> 50.3 µg/mL
16,Cc1cccc(NC(=S)N2CCCC2)c1,> 33 µg/mL
17,COc1cccc(C(=O)Nc2ccc(C(=O)c3ccccc3)cc2)c1,7.4 µg/mL
18,COc1ccc(-c2cc(C(=O)NC3CCCC3)c3ccccc3n2)cc1,4.7 µg/mL
19,Cc1cc(Br)ccc1S(=O)(=O)NCc1ccccc1,32.5 µg/mL
20,O=C(c1ccc([N+](=O)[O-])cc1)N(c1ccccn1)c1ccccn1,> 48 µg/mL
21,O=C(NCc1ccccc1)c1ccc[nH+]c1.[Cl-],> 37.3 µg/mL
22,N#Cc1c(N2CCSCC2)nsc1-c1ccccc1Cl,3.4 µg/mL
23,Cc1ccc(C23CC4CC(CC(C(=O)NC(C)C)(C4)C2)C3)cc1,< 0.7 µg/mL
24,COc1ccc(Nc2nc(-c3ccccc3O)nc3ccccc23)cc1,< 0.2 µg/mL
25,CCOc1ccc(CNC(c2ccccc2)c2ccccc2)cc1.Cl,< 0.8 µg/mL

row,Structure (SMILES),solubility kinetic
1,NC(=O)NC(=O)CSc1ccccc1,> 31.5 µg/mL
2,CCOC(=O)c1sc2nc(C)nc(NCc3ccccc3)c2c1C,0.3 µg/mL
3,O=C(Nc1ccc(Cl)cn1)c1ccc2nccnc2c1,3.6 µg/mL
4,N#C/C(=C(/O)c1ccc([N+](=O)[O-])cc1)c1nc2ccccc2[nH]1,< 0.2 µg/mL
5,O=S(=O)(Nc1nc2ccccc2nc1Cl)c1ccc(F)cc1,> 50.7 µg/mL
6,COc1ccc(C(=O)N=c2sccn2C)cc1,36.1 µg/mL
7,COC(=O)c1ccc(N2CCCCC2)c(N)c1,> 35.1 µg/mL
8,COc1ccccc1C1CCN(c2ccc(CO)cc2[N+](=O)[O-])CC1,7.8 µg/mL
9,Cc1cccc(NC(=O)CNC(=O)COC(=O)C2CC2C)c1C (stereo not drawn),> 47.8 µg/mL
10,CSc1nc(N)nc(N(C)C)n1,24.3 µg/mL
11,c1cncc(-c2nc(N3CCOCC3)c3c4c(sc3n2)CCC4)c1,1.1 µg/mL
12,CCN(CC)c1c([N+](=O)[O-])c(=O)n(CC)c2ccccc12,32.4 µg/mL
13,CCCCn1c(=O)cc(C)n(-c2ccccc2)c1=O,22.8 µg/mL
14,Cc1cc(N(C)C)nc(Nc2ccccc2)n1,> 34.2 µg/mL
15,CCOc1ccccc1NC(=O)CCCc1ccc(OC)c(C)c1,8.2 µg/mL
16,Cc1nc(N2CCCCCC2)c2ccccc2n1.Cl,> 41.7 µg/mL
17,Cc1cnc(C(=O)OCC(=O)Nc2cc(Cl)ccc2C#N)cn1,> 49.6 µg/mL
18,Cc1ccccc1Nc1c(-c2ccccn2)nc2c(C)cccn12,1 µg/mL
19,CCn1c(=O)cc(C(F)(F)F)[nH]c1=S,> 33.6 µg/mL
20,O=c1ccc2ccc(Oc3ccc([N+](=O)[O-])cc3Cl)cc2o1,2.5 µg/mL
21,Nc1cccc(NC(=O)CCC(=O)NCc2ccco2)c1,> 43.1 µg/mL
22,Cc1nc2ccc(NC(=O)c3cccc(S(=O)(=O)N4CCOCC4)c3)cc2s1,6.2 µg/mL
23,CN(CC(=O)Nc1ccccc1Br)C(=O)CN1CCN(Cc2cccc(Cl)c2)CC1,> 74.1 µg/mL
